Measurements reported in patent US20240252677A1, “ONE-COMPONENT DELIVERY SYSTEM FOR NUCLEIC ACIDS” (The Trustees of the University of Pennsylvania, priority 2021, published 2024).

Key:
lung = test: In vivo mRNA delivery, IVIS imaging of organs: lung; design: species or system mice; key to Organs with luminescence: lung: strong: Strong meant the luminescence intensity in that organ was relatively high, compared to other organs; weak: Weak meant the luminescence intensity in that organ was relatively low, compared to other organs; details: Table 17; mice, IVIS, 4-6 h after injection; intensity relative to other organs
spleen = test: In vivo mRNA delivery, IVIS imaging of organs: spleen; design: species or system mice; key to Organs with luminescence: spleen: strong: Strong meant the luminescence intensity in that organ was relatively high, compared to other organs; weak: Weak meant the luminescence intensity in that organ was relatively low, compared to other organs; details: Table 17; mice, IVIS, 4-6 h after injection; intensity relative to other organs
[1] = Dimensions (size, PDI) of DNPs co-assembled from IAJDs and Luc-mRNA by DLS; assay type: physicochemical
Procedure, shortened: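 IAJDs (80 mg/mL ethanol stock) rapidly injected into Luc-mRNA (4.0 mg/mL stock) diluted in 10 mM acetate buffer pH 4.0, then vortexed 5 s. Size and polydispersity of resulting DNPs measured by DLS (633 nm laser, 175° detection) at 23 °C.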

[2] = pKa measurements of individual IAJD molecules by titration; assay type: physicochemical; details: ethanol saturated with NaCl, titrated with 0.1 M aqueous HCl; individual IAJD molecules, titration
Procedure, shortened: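 Compound dissolved at 1.5 mg/mL in NaCl-saturated ethanol and titrated with 0.1 M HCl in 7.5 μL steps, pH read by electrode after each addition. pKa taken from the half-equivalence point.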

[3] = Table 16, DNPs from IAJD 4 mg/mL and Luc-mRNA 0.10 mg/mL by injection in acetate buffer (10 mM, pH 4.0)
[4] = Table 17, DNPs used in vivo, IAJD 4 mg/mL, Luc-mRNA 0.10 mg/mL, acetate pH 4.0

- PDI [1, 3]: 0.305
- Size (d, nm) [1, 3]: 99 nm
- PDI [1, 4]: 0.305
- Size (d, nm) [1, 4]: 99 nm
- pKa [2]: 6.62
Compound: CCCCCCCCCCCCCCCOc1cc(COC(=O)CCCN2CCN(CCO)CC2)cc(OCCCCCCCC)c1 [IAJD 138, 3-(Octyloxy)-5-(pentadecyloxy)benzyl 4-(4-(2-hydroxyethyl)piperazin-1-yl)butanoate]
- Organs with luminescence: lung (lung): Lung (weak),
- Organs with luminescence: spleen (spleen): spleen (strong)
